≈ marks a conversion by molar mass, not a printed value. Calls of active or inactive are those of the source. No cut-off for these calls is given here.
What was measured:
[1] = system: J774.A1; test: Cytotoxicity against mouse J774A1 cells by trypan blue exclusion assay; format: cell-based
[2] = system: Staphylococcus aureus; test: Antibacterial activity against Staphylococcus aureus ATCC 29213; format: functional
[3] = system: Staphylococcus aureus; test: Antibacterial activity against methicillin-resistant Staphylococcus aureus MW2; format: functional
[4] = system: Enterococcus faecium; test: Antibacterial activity against vancomycin-resistant Enterococcus faecium VRE1; format: functional
[5] = system: Enterococcus faecalis; test: Antibacterial activity against Enterococcus faecalis ATCC 29212; format: functional
[6] = system: Streptococcus pyogenes; test: Antibacterial activity against Streptococcus pyogenes UWL; format: functional
[7] = system: Escherichia coli; test: Antibacterial activity against Escherichia coli; format: functional, organism-based
[8] = system: Pseudomonas aeruginosa; test: Antibacterial activity against Pseudomonas aeruginosa; format: functional, organism-based

SMILES | IC50 [1] | MIC [2] | MIC [3] | MIC [4] | MIC [5] | MIC [6] | Activity [7] | Activity [8]
COc1ccc(C[C@H](N)C(=O)N[C@H]2[C@@H](O)[C@H](n3cnc4c(N(C)C)ncnc43)O[C@@H]2CO)cc1 [PUROMYCIN] | 10 µM |  |  |  |  |  |  | 
CN(C)[C@@H]1C(O)=C(C(N)=O)C(=O)[C@@]2(O)C(O)=C3C(=O)c4c(O)cccc4[C@@](C)(O)[C@H]3C[C@@H]12 [TETRACYCLINE] |  | 0.25 µg/mL (≈ 0.563 µM) | 0.125 µg/mL (≈ 0.281 µM) | 4 µg/mL (≈ 9 µM) | 16 µg/mL (≈ 36 µM) | 0.125 µg/mL (≈ 0.281 µM) |  | 
O=C1C=C[C@]2(O[C@@H]3c4c2ccc(O)c4C(=O)[C@@H]2O[C@H]32)c2cccc(O)c21 [URNUCRATIN A] | > 100 µM | 2 µg/mL (≈ 5.74 µM) | 2 µg/mL (≈ 5.74 µM) | 1 µg/mL (≈ 2.87 µM) | 0.5 µg/mL (≈ 1.44 µM) | 0.5 µg/mL (≈ 1.44 µM) | inactive | inactive
COc1cccc2c1C(=O)C=C[C@]21O[C@@H]2c3c1ccc(O)c3C(=O)[C@@H]1O[C@H]21 [URNUCRATIN B] | > 100 µM | 8 µg/mL (≈ 22.1 µM) | 8 µg/mL (≈ 22.1 µM) | 8 µg/mL (≈ 22.1 µM) | 8 µg/mL (≈ 22.1 µM) | 4 µg/mL (≈ 11 µM) | inactive | inactive
COc1cccc2c1C(=O)C=C[C@]21O[C@@H]2c3c1ccc(O)c3[C@H](O)[C@@H]1O[C@@H]12 [URNUCRATIN C] | > 100 µM | 64 µg/mL (≈ 176 µM) | 64 µg/mL (≈ 176 µM) | 64 µg/mL (≈ 176 µM) | 64 µg/mL (≈ 176 µM) | 64 µg/mL (≈ 176 µM) | inactive | inactive
CN[C@H](CC(C)C)C(=O)N[C@H]1C(=O)N[C@@H](CC(N)=O)C(=O)N[C@H]2C(=O)N[C@H]3C(=O)N[C@H](C(=O)N[C@H](C(=O)O)c4cc(O)cc(O)c4-c4cc3ccc4O)[C@H](O)c3ccc(c(Cl)c3)Oc3cc2cc(c3O[C@@H]2O[C@H](CO)[C@@H](O)[C@H](O)[C@H]2O[C@H]2C[C@](C)(N)[C@H](O)[C@H](C)O2)Oc2ccc(cc2Cl)[C@H]1O [VANCOMYCIN] |  |  |  | 64 µg/mL (≈ 44.2 µM) | 2 µg/mL (≈ 1.38 µM) | 1 µg/mL (≈ 0.69 µM) |  | 
